Entries after “also recorded” stand apart in the source; their conditions may differ.

The values below come from patent US20210401805A1, “Immune CB1 Activation for Obesity Therapy” (University of South Carolina, priority 2020, published 2021).

In assay [1] the test system is 12-week HFD-fed DIO mice. Kind of assay: DIO intervention study: body weight, fat mass, fat pad weight, food intake. The conditions noted are these: 21 consecutive days. Type of assay: in vivo.
Assay [2] relates to 12-week HFD-fed CB2−/− DIO mice. Nature of the assay: DIO intervention study in CB2-/- mice: body weight, adiposity, appetite. The assay is classed as in vivo. The following applies: AM251 10 mg/kg oral gavage, 21 consecutive days.
Assay [3] deals with DIO mice. The conditions noted are these: 4 weeks' treatment of DIO mice; cited from earlier work.
The subject of assay [4] is epididymal CD11b+F4/80+ ATMs and CD11c+ M1 ATMs. Kind of assay: Flow cytometry of epididymal adipose tissue macrophages in DIO intervention study. The assay is classed as in vivo, mice. (A flow cytometer gives signals particle by particle.)
Another assay relates to 6-week 36% HFD-fed mice. The following applies: cited from earlier work.
Assay [5] concerns 20 week 21% HFD-fed DIO mice. The conditions noted are these: 15 days of CB2 agonism; cited from earlier work.
The subject of assay [6] is 12-week HFD-fed DIO mice. Nature of the assay: Oral glucose tolerance test in DIO intervention study. The conditions noted are these: 21 consecutive days. Type of assay: in vivo.
Assay [7] deals with diet-induced obese (DIO) mice. The following applies: treatment of DIO mice with CB1 antagonist; cited from earlier work.
Assay [8] deals with DIO mice. The following applies: chronic administration in DIO mice; cited from earlier work.
Where [9] appears, read: AM251 10 mg/kg oral gavage, WT DIO mice.
Setting [10] is: 6-week 36% HFD-fed mice, treatment for 15 days.
[11] abbreviates: Deveaux et al., 15 day treatment of 6-week HFD-fed DIO.
Where [12] appears, read: JWH-133 5 mg/kg oral gavage, 21 consecutive days, 5 mg/kg.
Setting [13] is: SR144528 10 mg/kg oral gavage, versus vehicle-treated mice.

On to `Cc1c(C(=O)NN2CCCCC2)nn(-c2ccc(Cl)cc2Cl)c1-c1ccc(I)cc1` [AM251], for which, in the assay on 12-week HFD-fed DIO mice [1] (AM251 10 mg/kg oral gavage), the fat pad mass entry was “reduced”. The adiposity result (in the assay with 12-week HFD-fed DIO mice [1] (setting [9]); in assay [2]) was “reduced” each time. In addition, the appetite result (in the assay on 12-week HFD-fed DIO mice [1] (setting [9]); in assay [2]) was “suppressed” each time. Besides, the body weight result in the assay with 12-week HFD-fed DIO mice [1] (setting [9]) is “weight loss”; in assay [2] it was “weight loss”; in the assay on DIO mice [3], “rapid and sustained weight loss”. In addition, in assay [4] (AM251 10 mg/kg oral gavage, after 3 weeks of treatment, 10 mg/kg), the “epididymal ATM numbers” value is given as “remained constant; also recorded: persistent abundance”.

With `COc1ccc(C(=O)c2c(C)n(CCN3CCOCC3)c3cc(I)ccc23)cc1` [AM630], the “adipose tissue inflammatory markers” value in the assay with 6-week 36% HFD-fed mice (setting [10]) was “reduced”. In addition, the ATMs result in the assay with 6-week 36% HFD-fed mice (6-week 36% HFD-fed mice) was “reduced”.

Consider `CCCn1c(C)c(C(=O)c2cccc3ccccc23)c2ccccc21` [JWH-015], for which, in assay [5], the adiposity result was “reduced”, the appetite response entry was “anorectic response”, the body weight loss result was “approximately 10%” and the glucose tolerance result is “improved”. Further, the lipolysis entry in assay [5] is “increased”.

For the compound `CCCC(C)(C)c1ccc2c(c1)OC(C)(C)[C@@H]1CC=C(C)C[C@@H]21` [JWH-133], in the assay with 12-week HFD-fed DIO mice [1] (JWH-133 5 mg/kg oral gavage), the body weight entry is “did not significantly alter”, the fat mass entry is reported as “did not significantly alter” and the food intake result is given as “did not significantly alter”. For the same compound, in the assay on 12-week HFD-fed DIO mice [1] (JWH-133 5 mg/kg oral gavage, 5 mg/kg), the fat pad mass result is “fat pad loss; also recorded: fat pad shrinkage”. Also, in the assay with 12-week HFD-fed DIO mice [6] (JWH-133 5 mg/kg oral gavage), the glucose tolerance entry is recorded as “did not significantly alter”. Besides, in the assay on 6-week 36% HFD-fed mice (setting [10]), the “adipose tissue inflammatory markers” value was “increased” and the body weight entry is given as “no change”. In the assay on 6-week 36% HFD-fed mice (setting [11]), the obesity entry is “potentiated” and the “white adipose tissue expression of Emr1 (macrophage marker F4/80)” value is “increased”. The “numbers of M1 ATMs per gram of fat” value in [4] (JWH-133 5 mg/kg oral gavage, 21 consecutive days) is “increased”. For the same compound, in assay [4] (setting [12]), the “numbers of ATMs per gram of fat” value was “increased and more”; the “total ATMs” value is reported as “promoted persistence; also recorded: stable abundance”.

Turning to `Cc1c(C(=O)NN2CCCCC2)nn(-c2ccc(Cl)cc2Cl)c1-c1ccc(Cl)cc1` [SR141716A], in assay [7], the metabolic impairments entry is listed as “amelioration” and the obesity result is on record as “amelioration”. Further, in the assay with DIO mice [3], the adipose tissue inflammation entry is reported as “decreased”; the body weight result is “rapid and sustained weight loss”.

Consider `CCCCCc1cc(O)c2c(c1)OC(C)(C)[C@@H]1CCC(C)=C[C@@H]21` [THC, delta-9-tetrahydrocannabinol], for which, in the assay on DIO mice [8], the HFD-induced adiposity entry is reported as “reduces”, the HFD-induced polyphagia result is given as “reduces” and the HFD-induced weight gain result is “reduces”.

Regarding SR144528, in the assay on 12-week HFD-fed DIO mice [1] (setting [13]), the body weight result is recorded as “no changes” and the food intake result was “no changes”. In addition, the glucose tolerance result in the assay on 12-week HFD-fed DIO mice [6] (setting [13]) is “no changes”. In addition, the adipose tissue inflammation result in assay [4] (SR144528 10 mg/kg oral gavage, 21 consecutive days, versus vehicle-treated mice) is “no changes”.
